“And” between values parts separate entries of the source, which are not always exact repeats. Equal entries are not always repeated. After the bases stand the sugars from the 5' end (letter, count) and the backbone: PS all phosphorothioate, else s phosphorothioate and o phosphodiester by linkage. Methylation of C is not given here. e = 2'-O-(2-methoxyethyl) (MOE); k = constrained ethyl (cEt); d = 2'-deoxy (DNA)
target: IRF4; settings: ASO, MM.1R, 0.0625 µM

Sequence | target mRNA inhibition
AAGCTTAGTTATCTGG (sugars k3 d10 k3, PS) | -13%

same assay, conditions: ASO, MM.1R, 0.25 µM

Sequence | target mRNA inhibition
AAGCTTAGTTATCTGG (sugars k3 d10 k3, PS) | -10%

same assay, conditions: ASO, MM.1R, 1 µM

Sequence | target mRNA inhibition
AAGCAGTGATGTCAGG (sugars kkdddddddddkdkdk, PS) | 60% and 61%
AAGCATTTTATCATCC (sugars kddddddddddkekek, PS) | 14%
AAGCATTTTATCATCC (sugars kdddddddddkekeke, PS) | 6%
AAGCATTTTATCATCC (sugars kkkddddddddkekek, PS) | 10%
AAGCTTAGTTATCTGG (sugars k3 d10 k3, PS) | 35% and 13%
AAGCTTGATAAAGGCT (sugars k2 d9 e3 k2, PS) | 53%
AAGCTTGATAAAGGCT (sugars kddddddddddkekek, PS) | 3%
AAGCTTGATAAAGGCT (sugars kdddddddddkekeke, PS) | 2%
AAGGAACAAGTGTATC (sugars k3 d10 k3, PS) | 13%
AAGTCTACAGCCCCAG (sugars k3 d10 k3, PS) | -5%
AAGTGTCTAAAGTCCC (sugars kddddddddddkekek, PS) | -1%
AAGTGTCTAAAGTCCC (sugars kkdddddddddekeke, PS) | 13% and -1%
AAGTGTCTAAAGTCCC (sugars kkdddddddddkdkdk, PS) | 13% and 21%
AATCACCCTGGTCACC (sugars k3 d10 k3, PS) | 1%
AATGTGTATTACTCTT (sugars k3 d10 k3, PS) | 53% and 41%
AATGTGTATTACTCTT (sugars kkddddddddddkeke, PS) | 8% and 22%
ACAAAAACTTGGGTCA (sugars k3 d10 k3, PS) | -13%
ACACAAGTCTTAGGTG (sugars k3 d10 k3, PS) | -153%

same assay, conditions: ASO, MM.1R, 4 µM

Sequence | target mRNA inhibition
AAGCTTAGTTATCTGG (sugars k3 d10 k3, PS) | 45%

same assay, conditions: ASO, SK-MEL-28, 4 µM

Sequence | target mRNA inhibition
AAGCATAAAAGGTTCC (sugars k3 d10 k3, PS) | 28%
AAGCATAGAGTCACCT (sugars k3 d10 k3, PS) | 36%
AAGGAGGTAGTGGCCC (sugars k3 d10 k3, PS) | 47%
AAGGGAACAGATAGTT (sugars k3 d10 k3, PS) | 20%
AAGTCATTGCTCTTGT (sugars k4 d8 k4, PS) | 28%
AAGTGGACCCCATTGC (sugars k3 d10 k3, PS) | 31%
AAGTGTCTTCCACAAG (sugars k3 d10 k3, PS) | 54%
AATAAGATCCCACGAA (sugars k3 d10 k3, PS) | 15%
AATACCTACCTGCCCT (sugars k3 d10 k3, PS) | 15%
AATACGACAACTTTCC (sugars k3 d10 k3, PS) | 50%
AATAGAGGAATGGCGG (sugars k3 d10 k3, PS) | 53%
AATCACTGGAGAGAAC (sugars k3 d10 k3, PS) | 29%
AATCATGATATTAGAG (sugars k3 d10 k3, PS) | 31%
AATGAACCCTAAGTTT (sugars k3 d10 k3, PS) | 3%
AATGACTTAGTCAGAA (sugars k3 d10 k3, PS) | 27%
AATGATGGCAGTCTAC (sugars k3 d10 k3, PS) | 33%
AATGCACCTGGGAGAC (sugars k3 d10 k3, PS) | 62%
AATGGAGCATCCGCTT (sugars k3 d10 k3, PS) | -7%
AATGTCACGCCCGCAA (sugars k3 d10 k3, PS) | 19%
AATTTTAAGGCCCTGT (sugars k3 d10 k3, PS) | 24%
ACAAAACGGACTGGAA (sugars k3 d10 k3, PS) | 14%
ACAAATTAAAGAGCGC (sugars k3 d10 k3, PS) | 64%
ACACAGGCTAATCAGA (sugars k3 d10 k3, PS) | 7%
ACACATTAAAGGGTAA (sugars k3 d10 k3, PS) | 11%
ACACATTTGAGAGCTA (sugars k3 d10 k3, PS) | 69%

Source: the OligoGym collection
